Experiment [1] deals with human adenosine A2B receptor (Homo sapiens (Human), UniProt P29275). The experiment in a line: Adenosine A2B Receptor Cyclic AMP GS Assay. Format: cell-based. Particulars: HEK-293 cells expressing human A2B receptor, agonist NECA 12 nM, cAMP accumulation; read-out: A2B_cAMP_EC50. The protocol:
Example B. Adenosine A2B Receptor Cyclic AMP GS Assay
Stably transfected HEK-293 cells expressing the human adenosine A2B receptor (Perkin Elmer) were maintained in MEM culture medium with 10% FBS and 100 μg/mL Geneticin (Life Technologies). 18 to 24 hours prior to assay, geneticin was removed from culture. The cisbio cAMP-GS Dynamic kit utilizing the FRET (Fluorescence Resonance Energy Transfer) technology was used to measure cAMP accumulation in the cells. Compounds of the present disclosure at an appropriate concentration were mixed with 10000 cells/well in white 96 well half area plates (Perkin Elmer) for 30 min at room temperature gently shaking. Agonist, NECA (R&D Technologies) at 12 nM was added to each well for 60 min at room temperature gently shaking. Detection reagents, d2-labeled cAMP (acceptor) and anti-cAMP cryptate (donor) were added to each well for 60 min at RT gently shaking. Plates were read on Pherastar (BMG Labtech), fluorescence ratio 665/620 was calculated and EC50 determination was performed by fitting the curve of percent of control versus the log of the compound concentration using GraphPad Prism.
For orientation: Cyclic AMP is a second messenger, typically raised through Gs and lowered through Gi signalling.

The target of experiment [2] is Adenosine A2A receptor (Homo sapiens (Human), UniProt P29274). The experiment can be described thus: A2A Tag-Lite HTRF assay. The class given is binding. Particulars: Tag-Lite Adenosine A2A labeled cells, displacement of A2A Receptor Red antagonist fluorescent ligand 12.5 nM; read-out: A2A_Ki. The text has this: Example C. A2A Tag-Lite® HTRF Assay
Sequence of Adenosine A2A receptor (P29274 whole entry): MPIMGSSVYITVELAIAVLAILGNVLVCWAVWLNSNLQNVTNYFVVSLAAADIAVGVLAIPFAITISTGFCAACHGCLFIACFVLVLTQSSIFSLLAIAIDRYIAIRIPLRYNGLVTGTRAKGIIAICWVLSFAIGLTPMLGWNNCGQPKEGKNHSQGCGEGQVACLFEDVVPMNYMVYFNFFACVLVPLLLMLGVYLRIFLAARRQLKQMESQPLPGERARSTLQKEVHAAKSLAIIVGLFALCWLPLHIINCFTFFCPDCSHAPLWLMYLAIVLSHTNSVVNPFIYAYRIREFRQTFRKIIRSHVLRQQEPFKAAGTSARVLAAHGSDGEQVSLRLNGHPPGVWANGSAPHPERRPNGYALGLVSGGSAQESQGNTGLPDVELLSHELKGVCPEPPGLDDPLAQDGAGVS
The final concentration of DMSO was 1%.
Background: In TR-FRET formats the signal depends on donor and acceptor labels being close together.

The results in this text go back to patent US11168089B2, “Fused pyrimidine derivatives as A2A / A2B inhibitors” (Incyte Corporation, priority 2018, dated 2021).

Sequence of human adenosine A2B receptor (P29275 whole entry): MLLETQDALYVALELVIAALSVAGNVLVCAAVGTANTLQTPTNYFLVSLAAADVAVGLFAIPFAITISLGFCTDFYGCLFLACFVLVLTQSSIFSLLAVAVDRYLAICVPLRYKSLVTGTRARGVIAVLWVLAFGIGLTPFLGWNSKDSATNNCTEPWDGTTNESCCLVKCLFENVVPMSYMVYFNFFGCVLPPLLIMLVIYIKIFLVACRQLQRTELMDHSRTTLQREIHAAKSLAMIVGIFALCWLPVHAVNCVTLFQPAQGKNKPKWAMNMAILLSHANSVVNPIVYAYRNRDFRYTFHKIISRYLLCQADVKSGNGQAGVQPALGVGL

`N#Cc1cccc(-c2cc3nc(NCc4cccc(-c5cnn(CCN6CCOCC6)c5)n4)nn3c(N)n2)c1F` [Example 34, 3-(5-Amino-2-(((6-(1-(2-morpholinoethyl)-1H-pyrazol-4-yl)pyridin-2-yl)methyl)amino)-[1,2,4]triazolo[1,5-c]pyrimidin-7-yl)-2-fluorobenzonitrile]: the EC50 in experiment [1] fell in the range of 10 to 100 nM. The Ki in experiment [2] was under 10 nM.
For `N#Cc1cccc(-c2cc3nc(Cc4c(F)cccc4CNC4CCN(CC(=O)O)C4=O)nn3c(N)n2)c1F` (stereo not shown) [Example 19, 2-(3-((2-((5-Amino-7-(3-cyano-2-fluorophenyl)-[1,2,4]triazolo[1,5-c]pyrimidin-2-yl)methyl)-3-fluorobenzyl)amino)-2-oxopyrrolidin-1-yl)acetic acid] the same measures were 10 to 100 nM and under 10 nM.
In the case of `N#Cc1cccc(-c2cc3nc(Nc4ccccc4)nn3c(N)n2)c1` [Example 10, 3-(5-Amino-2-(phenylamino)-[1,2,4]triazolo[1,5-c]pyrimidin-7-yl)benzonitrile], in experiment [1], the EC50 lay within 100 to 1000 nM. Besides, the Ki in experiment [2] was under 10 nM.
For `CCNC(=O)c1nc2cc(-c3cccc(C#N)c3)nc(N)n2n1` [Example 12, 5-Amino-7-(3-cyanophenyl)-N-ethyl-[1,2,4]triazolo[1,5-c]pyrimidine-2-carboxamide], the EC50 in experiment [1] was over 1000 nM. For the same compound, the Ki in experiment [2] is under 10 nM.
Turning to `N#Cc1cccc(-c2cc3nc(Cc4ccccc4)cn3c(N)n2)c1` [Example 11, 3-(5-Amino-2-benzylimidazo[1,2-c]pyrimidin-7-yl)benzonitrile], in experiment [1], the EC50 is 10 to 100 nM. For the same compound, the Ki in experiment [2] was under 10 nM.
The like results for `CCN(Cc1cccc(F)c1Cc1nc2cc(-c3cccc(C#N)c3F)nc(N)n2n1)C1CCN(C)C1=O` (stereo not shown) [Example 31, 3-(5-Amino-2-(2-((ethyl(1-methyl-2-oxopyrrolidin-3-yl)amino)methyl)-6-fluorobenzyl)-[1,2,4]triazolo[1,5-c]pyrimidin-7-yl)-2-fluorobenzonitrile] were, in that order, under 10 nM and under 10 nM.
The like results for `N#Cc1cccc(-c2cc3nc(CN4CCCC4=O)nn3c(N)n2)c1` [Example 6, 3-(5-Amino-2-((2-oxopyrrolidin-1-yl)methyl)-[1,2,4]triazolo[1,5-c]pyrimidin-7-yl)benzonitrile] were, in that order, 100 to 1000 nM and under 10 nM.
For `N#Cc1cccc(-c2nc(N)n3nc(C(O)c4c(F)cccc4F)nc3c2C#N)c1F` (stereo not shown) [Example 15, 5-Amino-7-(3-cyano-2-fluorophenyl)-2-((2,6-difluorophenyl)(hydroxy)methyl)-[1,2,4]triazolo[1,5-c]pyrimidine-8-carbonitrile], the EC50 in experiment [1] is under 10 nM. The Ki in experiment [2] is under 10 nM.
Regarding `N#Cc1cccc(-c2cc3nc(Cc4c(F)cccc4CN4CC[C@H](C#N)C4)nn3c(N)n2)c1F` [Example 27, (S)-1-(2-((5-Amino-7-(3-cyano-2-fluorophenyl)-[1,2,4]triazolo[1,5-c]pyrimidin-2-yl)methyl)-3-fluorobenzyl)pyrrolidine-3-carbonitrile], in experiment [1], the EC50 was 10 to 100 nM. In addition, the Ki in experiment [2] is under 10 nM.
The like results for `CN1CCC(NCc2cccc(F)c2Cc2nc3cc(-c4cccc(C#N)c4F)nc(N)n3n2)C1=O` (stereo not shown) [Example 29, 3-(5-Amino-2-(2-fluoro-6-(((1-methyl-2-oxopyrrolidin-3-yl)amino)methyl)benzyl)-[1,2,4]triazolo[1,5-c]pyrimidin-7-yl)-2-fluorobenzonitrile] were, in that order, 10 to 100 nM and under 10 nM.
For `N#Cc1cccc(-c2cc3nc(Cc4c(F)cccc4CN[C@@H]4CCNC4=O)nn3c(N)n2)c1F` [Example 21, (R)-3-(5-Amino-2-(2-fluoro-6-(((2-oxopyrrolidin-3-yl)amino)methyl)benzyl)-[1,2,4]triazolo[1,5-c]pyrimidin-7-yl)-2-fluorobenzonitrile] the same measures were under 10 nM and under 10 nM.
The like results for `N#Cc1cccc(-c2cc3nc(C(O)c4c(F)cccc4F)nn3c(N)n2)c1F` (stereo not shown) [Example 14, 3-(5-Amino-2-((2,6-difluorophenyl)(hydroxy)methyl)-[1,2,4]triazolo[1,5-c]pyrimidin-7-yl)-2-fluorobenzonitrile] were, in that order, under 10 nM and under 10 nM.
Turning to `N#Cc1cccc(-c2cc3nc(CC4CCCCC4)nn3c(N)n2)c1` [Example 4, 3-(5-Amino-2-(cyclohexylmethyl)-[1,2,4]triazolo[1,5-c]pyrimidin-7-yl)benzonitrile], the EC50 in experiment [1] is 100 to 1000 nM. The Ki in experiment [2] is under 10 nM.
For `N#Cc1cccc(-c2nc(N)n3nc(Cc4ccccc4)nc3c2CO)c1` [Example 9, 3-(5-Amino-2-benzyl-8-(hydroxymethyl)-[1,2,4]triazolo[1,5-c]pyrimidin-7-yl)benzonitrile] the same measures were 10 to 100 nM and under 10 nM.
For `CN1CCC2(CN(Cc3cccc(F)c3Cc3nc4cc(-c5cccc(C#N)c5F)nc(N)n4n3)C2)C1=O` [Example 28, 3-(5-Amino-2-(2-fluoro-6-((6-methyl-5-oxo-2,6-diazaspiro[3.4]octan-2-yl)methyl)benzyl)-[1,2,4]triazolo[1,5-c]pyrimidin-7-yl)-2-fluorobenzonitrile] the same measures were 10 to 100 nM and under 10 nM.
With `N#Cc1cccc(-c2cc3nc(Cc4c(F)cccc4CN4CCC[C@H]4c4nn[nH]n4)nn3c(N)n2)c1F` [Example 26, (S)-3-(2-(2-((2-(2H-Tetrazol-5-yl)pyrrolidin-1-yl)methyl)-6-fluorobenzyl)-5-amino-[1,2,4]triazolo[1,5-c]pyrimidin-7-yl)-2-fluorobenzonitrile], in experiment [1], the EC50 is under 10 nM. Further, the Ki in experiment [2] is under 10 nM.
Regarding `N#Cc1cccc(-c2cc3nc(NCc4cccc(-c5cnn(C6CCNCC6)c5)n4)nn3c(N)n2)c1F` [Example 33, 3-(5-Amino-2-(((6-(1-(piperidin-4-yl)-1H-pyrazol-4-yl)pyridin-2-yl)methyl)amino)-[1,2,4]triazolo[1,5-c]pyrimidin-7-yl)-2-fluorobenzonitrile], the EC50 in experiment [1] is under 10 nM. For the same compound, in experiment [2], the Ki is under 10 nM.
Regarding `Cn1ccnc1Cc1nc2cc(-c3cccc(C#N)c3)nc(N)n2n1` [Example 7, 3-(5-Amino-2-((1-methyl-1H-imidazol-2-yl)methyl)-[1,2,4]triazolo[1,5-c]pyrimidin-7-yl)benzonitrile], the EC50 in experiment [1] was in the range of 10 to 100 nM. Moreover, the Ki in experiment [2] is under 10 nM.
For `Cc1c(C#N)cccc1-c1cc2nc(C(O)c3c(F)cccc3F)nn2c(N)n1` (stereo not shown) [Example 13, 3-(5-Amino-2-((2,6-difluorophenyl)(hydroxy)methyl)-[1,2,4]triazolo[1,5-c]pyrimidin-7-yl)-2-methylbenzonitrile] the same measures were 10 to 100 nM and under 10 nM.
Regarding `CCN(Cc1cccc(F)c1Cc1nc2cc(-c3cccc(C#N)c3F)nc(N)n2n1)C1CCN(CC(=O)O)C1=O` (stereo not shown) [Example 30, 2-(3-((2-((5-Amino-7-(3-cyano-2-fluorophenyl)-[1,2,4]triazolo[1,5-c]pyrimidin-2-yl)methyl)-3-fluorobenzyl)(ethyl)amino)-2-oxopyrrolidin-1-yl)acetic acid], in experiment [1], the EC50 is under 10 nM. Also, in experiment [2], the Ki is under 10 nM.
As for `CCN(Cc1cccc(F)c1C(O)c1nc2cc(-c3cccc(C#N)c3F)nc(N)n2n1)[C@H]1CCNC1=O` (stereo partly drawn) [Example 18, 3-(5-Amino-2-((2-((ethyl((S)-2-oxopyrrolidin-3-yl)amino)methyl)-6-fluorophenyl)(hydroxy)methyl)-[1,2,4]triazolo[1,5-c]pyrimidin-7-yl)-2-fluorobenzonitrile], the EC50 in experiment [1] is under 10 nM. For the same compound, in experiment [2], the Ki was under 10 nM.
For the compound `N#Cc1cccc(-c2cc3nc(Cc4ccccn4)nn3c(N)n2)c1` [Example 3, 3-(5-Amino-2-(pyridin-2-ylmethyl)-[1,2,4]triazolo[1,5-c]pyrimidin-7-yl)benzonitrile], the EC50 in experiment [1] was under 10 nM. Besides, the Ki in experiment [2] is under 10 nM.
Turning to `N#Cc1cccc(-c2cc3nc(C(N)c4ccccc4)nn3c(N)n2)c1` (stereo not shown) [Example 8, 3-(5-Amino-2-(amino(phenyl)methyl)-[1,2,4]triazolo[1,5-c]pyrimidin-7-yl)benzonitrile], the EC50 in experiment [1] lay in the range of 100 to 1000 nM. In addition, the Ki in experiment [2] was under 10 nM.
`CCN1CCC(NCc2cccc(F)c2Cc2nc3cc(-c4cccc(C#N)c4F)nc(N)n3n2)C1=O` (stereo not shown) [Example 24, 3-(5-Amino-2-(2-(((1-ethyl-2-oxopyrrolidin-3-yl)amino)methyl)-6-fluorobenzyl)-[1,2,4]triazolo[1,5-c]pyrimidin-7-yl)-2-fluorobenzonitrile]: in experiment [1], the EC50 is 10 to 100 nM. The Ki in experiment [2] was under 10 nM.
With `N#Cc1cccc(-c2cc3nc(Cc4c(F)cccc4CN4CCC(c5nn[nH]n5)C4)nn3c(N)n2)c1F` (stereo not shown) [Example 23, 3-(2-(2-((3-(2H-Tetrazol-5-yl)pyrrolidin-1-yl)methyl)-6-fluorobenzyl)-5-amino-[1,2,4]triazolo[1,5-c]pyrimidin-7-yl)-2-fluorobenzonitrile], the EC50 in experiment [1] lay within 10 to 100 nM. Further, the Ki in experiment [2] was under 10 nM.
For `Cn1cc(-c2cccc(Cc3nc4cc(-c5cccc(C#N)c5)nc(N)n4n3)c2)cn1` [Example 5, 3-(5-Amino-2-(3-(1-methyl-1H-pyrazol-4-yl)benzyl)-[1,2,4]triazolo[1,5-c]pyrimidin-7-yl)benzonitrile] the same measures were 100 to 1000 nM and under 10 nM.
